Reference: patent US5688826A, “Excitatory amino acid derivatives” (Eli Lilly and Company, priority 1996, dated 1997)

Columns and labels:
[1] = tested on: cAMP-linked metabotropic glutamate receptors; assay: agonism of glutamate at cAMP-linked metabotropic glutamate receptors; assay type: cell-based; conditions: result in words only
[2] = tested on: metabotropic glutamate receptors; assay: displacement of 1S,3R-ACPD-sensitive [3H]glutamate binding to rat brain cell membranes; conditions: crude membranes of rat forebrain
Description: The binding of [^3 H]glutamate was conducted with crude membranes of rat forebrain as described by Schoepp and True. Schoepp and True, Neuroscience Lett., 145, 100-104 (1992) and Wright et al., J. Neurochemistry 63:938-945 (1994).

SMILES | agonist activity at cAMP-linked metabotropic glutamate receptors [1] | IC50 [2] [nM]
NC1(C(=O)O)COC2C(C(=O)O)C21 (single isomer, unassigned) [Example 2(g)] | potent agonists | 
NC1(C(=O)O)COC2C(C(=O)O)C21 (stereo not drawn) [Example 1, 1SR,4SR,5RS,6SR-4-Amino-2-Oxabicyclo[3.1.0]hexane-4,6-dicarboxylic Acid] | potent agonists | 55
NC1(C(=O)O)CSC2C(C(=O)O)C21 (stereo not drawn) [Example 4, 1SR,4RS,5RS,6RS-4-Amino-2-Thiabicyclo[3.1.0]hexane-4,6-dicarboxylic Acid] | potent agonists | 
